Read-outs that look alike come from different tables or passages of the source.
Assays:
UreG dimers = target: T1, UreG dimers (Helicobacter pylori, UniProt Q09066); experiment: Nickel uptake assay (dialysis, atomic absorption spectroscopy); format: biochemical; conditions: 25, 50 and 100 μM coptisine, 2.5 μM UreG dimer, versus control, all p < 0.01
T1 construct: HisSUMO (N, cleaved yes); made in house; host or cells: Escherichia coli
Method: UreG dimers were obtained using GTPγS as described previously. Briefly, the UreG dimer was purified by incubating apo-UreG at 3 mg/mL on ice with 1 mM GTP, 2 mM MgSO4, and 0.5 mM NiSO4 for 15 min. Nickel-charged UreG dimers were then separated from excess GTP and nickel using a Sephadex G25 desalting column. UreG dimers (2.5 μM) were injected into dialysis bag (6–8 kDa) and mixed with different concentrations of coptisine (25, 50, or 100 μM) or DMSO (control). The dialysis bag was sealed and placed in beakers containing UreG dimer buffer at 37 °C in a water bath. After 30 min, dialysis bags were placed in fresh buffer and the sample was incubated for 2 h at 4 °C with continuous shaking to initiate dialysis. The dialysis process was repeated three times. Samples were then removed and nickel concentrations were measured using atomic absorption spectroscopy (AA-7000, SHIMADZU). Nickel concentration was determined by comparing measurements against a standard curve of known nickel concentrations.

H. pylori urease (HPU) [1] = target: T2, H. pylori urease (HPU) (Helicobacter pylori, UniProt P69996); experiment: Progress curve analysis; format: biochemical; conditions: 0.63, 1.25 and 2.50 mM Cop, non-pre-incubated and pre-incubated systems
T2 construct: Crude HPU was obtained according to the method described by Matsubara et al; endogenous in cells; host or cells: cultured Helicobacter pylori (strain not specified)
T2 sequence (P69996 whole entry): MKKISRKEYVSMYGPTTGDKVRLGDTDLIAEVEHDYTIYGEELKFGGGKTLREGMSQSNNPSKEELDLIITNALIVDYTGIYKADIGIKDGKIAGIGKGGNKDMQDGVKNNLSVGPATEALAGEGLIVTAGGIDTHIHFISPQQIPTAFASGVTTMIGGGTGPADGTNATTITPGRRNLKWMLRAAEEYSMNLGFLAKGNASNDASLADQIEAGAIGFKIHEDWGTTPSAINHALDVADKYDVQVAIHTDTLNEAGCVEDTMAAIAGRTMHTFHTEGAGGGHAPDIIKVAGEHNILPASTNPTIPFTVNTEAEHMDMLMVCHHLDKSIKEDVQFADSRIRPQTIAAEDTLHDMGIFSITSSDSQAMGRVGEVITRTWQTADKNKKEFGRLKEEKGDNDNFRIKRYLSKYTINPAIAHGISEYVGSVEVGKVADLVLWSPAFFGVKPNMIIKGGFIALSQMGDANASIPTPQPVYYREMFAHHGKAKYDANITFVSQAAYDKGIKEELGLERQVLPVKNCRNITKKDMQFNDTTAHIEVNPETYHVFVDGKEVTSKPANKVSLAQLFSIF
T2 sequence (P14916 whole entry, further chain): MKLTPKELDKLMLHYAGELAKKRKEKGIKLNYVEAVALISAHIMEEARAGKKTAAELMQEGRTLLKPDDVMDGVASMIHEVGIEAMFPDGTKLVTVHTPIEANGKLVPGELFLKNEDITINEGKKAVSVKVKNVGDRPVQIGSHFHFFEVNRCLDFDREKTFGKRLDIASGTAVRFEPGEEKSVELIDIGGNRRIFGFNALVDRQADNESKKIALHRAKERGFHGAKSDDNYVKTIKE
Method: (§1) Reaction progress curves for urea hydrolysis in the non-pre-incubated and pre-incubated systems were generated by plotting the concentration of ammonia generated as a function of the incubation time P(t) in the absence or presence of coptisine. Coptisine and urease were mixed immediately before the reaction in the non-pre-incubated system and were mixed and incubated for 20 min before urea was added to initiate the reaction in the pre-incubated system. Urease activity relative to the standard assay was determined at different time intervals.

jack bean urease (JBU) [2] = target: T3, jack bean urease (JBU) (Canavalia ensiformis, UniProt P07374); experiment: Progress curve analysis; format: biochemical; conditions: 0.63, 1.25 and 2.50 mM Cop, non-pre-incubated and pre-incubated systems
T3 construct: purchased Sigma Aldrich (Steineheim, Germany) type III (catalogue number not given)
T3 sequence (P07374 whole entry, looked up): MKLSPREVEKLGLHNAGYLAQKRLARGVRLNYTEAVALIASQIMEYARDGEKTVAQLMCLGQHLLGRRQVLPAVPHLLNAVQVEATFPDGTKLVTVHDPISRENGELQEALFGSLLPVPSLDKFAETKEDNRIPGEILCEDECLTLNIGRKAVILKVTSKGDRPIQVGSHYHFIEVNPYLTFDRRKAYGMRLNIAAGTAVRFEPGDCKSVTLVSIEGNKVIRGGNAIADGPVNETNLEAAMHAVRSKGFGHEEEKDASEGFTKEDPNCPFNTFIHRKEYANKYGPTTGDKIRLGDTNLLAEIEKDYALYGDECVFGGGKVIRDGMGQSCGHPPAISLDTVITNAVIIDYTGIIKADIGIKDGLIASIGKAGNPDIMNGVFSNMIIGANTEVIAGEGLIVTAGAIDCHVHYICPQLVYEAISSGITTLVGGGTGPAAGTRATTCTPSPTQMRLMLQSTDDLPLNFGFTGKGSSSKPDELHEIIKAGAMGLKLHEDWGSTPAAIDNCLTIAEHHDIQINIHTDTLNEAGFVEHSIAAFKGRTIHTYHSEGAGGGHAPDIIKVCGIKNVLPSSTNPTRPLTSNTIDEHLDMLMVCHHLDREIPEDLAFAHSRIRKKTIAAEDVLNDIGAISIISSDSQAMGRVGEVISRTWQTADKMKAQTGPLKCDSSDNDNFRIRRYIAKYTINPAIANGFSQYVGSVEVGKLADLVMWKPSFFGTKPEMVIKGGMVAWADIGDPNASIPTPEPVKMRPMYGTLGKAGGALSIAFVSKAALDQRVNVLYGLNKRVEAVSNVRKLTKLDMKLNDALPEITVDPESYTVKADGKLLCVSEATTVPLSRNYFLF
Method: as §1

UreG dimer = target: T4, UreG dimer (Helicobacter pylori, UniProt Q09066); experiment: UreG dimer formation inhibition assay (size exclusion chromatography); format: biochemical; conditions: 500 μM coptisine, 300 μM GTP, 5 μM UreG monomer, 2.5 μM NiSO4, 60 min
T4 construct: HisSUMO (N, cleaved yes); made in house; host or cells: Escherichia coli
T4 sequence (Q09066 whole entry): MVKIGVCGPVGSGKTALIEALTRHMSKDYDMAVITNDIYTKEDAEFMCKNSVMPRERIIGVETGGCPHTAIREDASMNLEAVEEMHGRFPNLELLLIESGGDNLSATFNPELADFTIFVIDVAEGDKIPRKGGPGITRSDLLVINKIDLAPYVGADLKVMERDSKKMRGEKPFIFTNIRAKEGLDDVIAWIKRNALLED
Method: Size exclusion chromatography technology was used to analyse the effects of coptisine on UreG dimer formation. Experiment was carried out in the buffer containing 5 μM UreG monomer and 2.5 μM NiSO4, and divided into the following three groups: 300 μM GTP (positive control), buffer A (negative control), and 300 μM GTP +500 μM coptisine. After reaction for 60 min, samples were then injected into a Superdex 75 analytical gel filtration column pre-equilibrated with buffer A.

H. pylori urease (HPU) [3] = target: T2, H. pylori urease (HPU); experiment: Determination of urease inhibition type (Lineweaver-Burk plots); format: biochemical
Method: (§2) Using the methods described above, the type of enzyme inhibition induced by coptisine was determined by examining changes in the Michaelis constant (KM) and maximum velocity (vmax) values from Lineweaver–Burk plots of 1/v versus 1/urea. The inhibition constant was determined using secondary plots of the apparent KM/vmax or 1/vmax versus the concentration of coptisine. The assays were performed in triplicate.

jack bean urease (JBU) [4] = target: T3, jack bean urease (JBU); experiment: as above; format: biochemical
Method: as §2

H. pylori cells (SS1) = experiment: pH shock experiment in vivo (urea-dependent survival of H. pylori); format: cell-based, Helicobacter pylori; conditions: for surviving bacteria, pH =1: 100 mM HCl pH 1, 5 mM urea; for surviving bacteria, pH =1 / surviving bacteria, pH =7.2: 30 min; for surviving bacteria, pH =7.2: PBS pH 7.2, 5 mM urea; for inhibition at 50 µM / inhibition at 100 µM / inhibition at 200 µM: Helicobacter pylori, 0.5 h
Method: H. pylori cells (SS1) were harvested, and the concentration was adjusted to Mc = 4 with saline. Then, bacterial samples were mixed with AHA (positive control, 5 mM) or one of the five alkaloids from Rhizoma Coptidis (coptisine, berberine, jatrorrhizine, epiberberine, and palmatine) in 100 mM HCl (pH = 1) or PBS (pH = 7.2) at 37 °C with or without 5 mM urea. After 30 min of incubation, bacteria were collected by centrifugation at 2000g for 10 min and resuspended in the same volume of PBS. A dilution series (1:1–1:10000) was made from the samples, and the dilutions were plated on solid agar for 5 days to form single colony. Samples from urea-free wells were used as controls. Results are expressed as CFU/mL; the experiment was repeated in triplicate. Inhibition rate was calculated using the following equation: Inhibition rate = (Urea group bacterial mean − X group bacterial mean)/Urea group bacterial mean ×100%, where X represents each experimental group.

jack bean urease (JBU) [5] = target: T3, jack bean urease (JBU); experiment: Urease inhibition assay in vitro (modified Berthelot method); format: biochemical
Method: This assay was performed using the modified Berthelot method (phenol-hypochlorite) in 96 well plates. At the beginning of each reaction, different concentrations of urease solution and 150 mM urea as a substrate were mixed in 20 mM HEPES buffer (pH 7.5) at 37 °C. After a 20-min reaction, urease activity was tested by measuring the concentration of ammonia produced by the reaction at 595 nm using the microplate reader (Thermo Fisher Multiskan FC, Instruments, Inc., USA) at ambient temperature. […] One unit (U) of urease activity was defined as the amount of urease required to catalyse 1 μmol urea per min. These experiments were repeated in triplicate.
Coptisine’s ability to inhibit urease activity was determined by measuring amounts of ammonia produced using the modified Berthelot method described above. The assay mixture, which contained 200 μL of enzyme and 200 μL of coptisine solution (0.16–2.51 mM) in 200 μL of 20 mM HEPES buffer (pH 7.5), was incubated for 20 min at 37 °C in 96-well plates. The reaction was then initiated by adding urea solution (150 mM) to determine residual urease activity. AHA was used as a standard urease inhibitor. […] Residual activity (RA %) for each assay was calculated using the following equation: RA % = (activity with inhibitors/activity without inhibitors) × 100%. […]

[6] = Lineweaver-Burk plots, 1.00, 2.00 or 4.00 mM Cop
[7] = pH 1, read-out: Inhibition rate, pH =1
[8] = pH 7.2, read-out: Inhibition rate, pH =7.2

T1 sequence (Q09066 whole entry): as above

SMILES: c1c2c(cc3c1OCO3)-c1cc3ccc4c(c3c[n+]1CC2)OCO4 [Coptisine]
- bound nickel concentrations of UreG dimers (UreG dimers): markedly decreased
- binding behaviour from reaction progress curves, HPU (H. pylori urease (HPU) [1]): slow-binding inhibition
- binding behaviour from reaction progress curves, JBU (jack bean urease (JBU) [2]): slow-binding inhibition
- UreG dimerisation (UreG dimer): obviously inhibited
- Ki (H. pylori urease (HPU) [3]): 50 µM
- inhibition type, HPU (H. pylori urease (HPU) [3]; [6]): mixed-type inhibitor
- Kis (binding to the enzyme substrate complex), HPU (H. pylori urease (HPU) [3]; from vertical intercept versus inhibitor concentration): 1.48 mM
- Ki (jack bean urease (JBU) [4]): 170 µM
- inhibition type, JBU (jack bean urease (JBU) [4]; [6]): non-competitively inhibits
- Kis, JBU (jack bean urease (JBU) [4]; from intercept versus Cop concentration): 0.25 mM
- surviving bacteria, pH =1 (H. pylori cells (SS1); 50 μM compound): 129 ± 31 CFU/mL
- surviving bacteria, pH =7.2 (H. pylori cells (SS1); 50 μM compound): 1.0 ± 0.2 ×10^4 CFU/mL
- surviving bacteria, pH =1 (H. pylori cells (SS1); 100 μM compound): 25 ± 6 CFU/mL
- surviving bacteria, pH =7.2 (H. pylori cells (SS1); 100 μM compound): 1.3 ± 0.3 ×10^4 CFU/mL
- surviving bacteria, pH =1 (H. pylori cells (SS1); 200 μM compound): 7 ± 3 CFU/mL
- surviving bacteria, pH =7.2 (H. pylori cells (SS1); 200 μM compound): 1.2 ± 0.3 ×10^4 CFU/mL
- inhibition at 50 µM (H. pylori cells (SS1); [7]): 72.7%
- inhibition at 100 µM (H. pylori cells (SS1); [7]): 94.7%
- inhibition at 200 µM (H. pylori cells (SS1); [7]): 98.5%
- inhibition at 50 µM (H. pylori cells (SS1); [8]): 0%
- inhibition at 100 µM (H. pylori cells (SS1); [8]): 0%
- inhibition at 200 µM (H. pylori cells (SS1); [8]): 0%
- IC50 (jack bean urease (JBU) [5]): 260 ± 20 µM
